Assay results reported in ChEMBL document CHEMBL3120140, “Balgacyclamides, antiplasmodial heterocyclic peptides from Microcystis aeruguinosa EAWAG 251” (J Nat Prod, 2014).

Columns and labels:
Plasmodium falciparum = experiment: Antiplasmodial activity against chloroquine-resistant Plasmodium falciparum K1 infected in human RBC after 48 hrs by [3H]-hypoxanthine incorporation assay; type: functional, organism-based
Trypanosoma cruzi = experiment: Antitrypanosomal activity against Trypanosoma cruzi Tulahuen C4; type: functional, organism-based
Leishmania donovani = experiment: Antileishmanial activity against Leishmania donovani MHOM-ET-67/L82; type: functional, organism-based
L6 = experiment: Cytotoxicity against rat L6 cells after 72 hrs by Alamar blue assay; type: cell-based; settings: L6, 72 h
[1] = test system: Trypanosoma brucei rhodesiense; experiment: Antitrypanosomal activity against Trypanosoma brucei rhodesiense STIB 900 after 72 hrs by Alamar blue assay; type: functional, organism-based; settings: STIB 900, 72 h

Row | SMILES | IC50 (Plasmodium falciparum) [µM] | IC50 (Trypanosoma cruzi) [µM] | IC50 (Leishmania donovani) [µM] | IC50 (L6) [µM] | IC50 [1] [µM]
1 | CC[C@H](C)[C@H]1NC(=O)[C@H]2N=C(O[C@@H]2C)[C@H](C(C)C)NC(=O)[C@H]([C@@H](C)O)NC(=O)[C@@H](C)NC(=O)c2csc1n2 | 8.2 | > 150 | 28 | > 150 | 51
2 | CC[C@H](C)[C@H]1NC(=O)[C@H]2N=C(O[C@@H]2C)[C@H](C(C)C)NC(=O)[C@H]2N=C(O[C@@H]2C)[C@@H](C)NC(=O)c2csc1n2 | 9 | > 150 | > 150 | > 150 | 59
